Assay results reported in patent EP3440167B2, “FRAGRANCED COMPOSITIONS AND THEIR USE” (Unilever IP Holdings B.V., priority 2016, dated 2017).

Columns and labels:
Format in all cases: physicochemical
[1] = Experiment A: ozone chamber exposure of β-ionone on a surface, headspace SPME-GCMS; conditions: 1 hour exposure
Method: A β-ionone solution (10 % w/w in ethanol) was applied to a surface (20 microlitres) and was allowed to dry for one hour in a fume cupboard. The surface was then placed at the base of the ozone chamber. The ozone generator plug-in was turned on for the required time at regular intervals to achieve the desired ozone concentration inside the chamber (either 250 ppb or 350 ppb). After exposure of a surface to ozone for the desired time of 1 hour the surface was removed from the chamber and placed in a capped PVC container. The surface was left in the PVC container for 10 min and then an additional 20 min with an SPME fibre exposed to the head-space environment of the container. The headspace was measured by SPME-GCMS and the ratios of β-cyclocitral to β-ionone determined as follows: […]

[2] = Experiment B: ozone chamber exposure at 100 ppb over time, headspace SPME-GCMS; conditions: 100 ppb ozone
Method: A β-ionone solution (10 % w/w in ethanol) was applied to a surface (20 microlitres) and was allowed to dry for one hour in a fume cupboard. The surface was then placed at the base of the ozone chamber. The ozone generator plug-in was turned on for the required time at regular intervals to achieve the desired ozone concentration inside the chamber (either 250 ppb or 350 ppb). After exposure of a surface to ozone for the desired time of 1 hour the surface was removed from the chamber and placed in a capped PVC container. The surface was left in the PVC container for 10 min and then an additional 20 min with an SPME fibre exposed to the head-space environment of the container. The headspace was measured by SPME-GCMS and the ratios of β-cyclocitral to β-ionone determined as follows:
This experiment was run like Experiment A, except that the ozone level used was 100 ppb and after 1,2,3,4 and 5 hours measurements of headspace were made and the ratios of β-cyclocitral / β-ionone were calculated from headspace concentration.

[3] = Example 3: exposure of β-ionone on filter paper in ozone-free glovebox, GC-MS of headspace and extract; conditions: ozone below detection limit, 1 hour exposure
Method: A 0.3% solution of β-ionone in ethanol and a 0.3% solution of β-cyclocitral were prepared. 1 ml of the β-ionone was placed on a piece of filter paper (cellulose, 75 mm dia.) and left for 2 minutes for the ethanol to evaporate. The filter paper was then placed in a glovebox containing an ozone "scrubber" and an ozone monitor (Aeroqual series 200 fitted with a 0 to 0.5 ppm sensor). Throughout the experiment the ozone level inside the glovebox was below the detection limit of the monitor. The ozone scrubber comprised an air pump (Interpet AirVolution AV4), pumping air at a rate of 600 l/hr through 0.75 g/l sodium thiosulphate solution.
After 1 hour exposure the filter paper was sealed in a 500 ml glass jar that had been adapted such that a SPME fibre could be introduced via a septum in the lid. The headspace above the sample was analysed using a Carboxen/DVB/PDMS SPME fibre using a 30 minute exposure. The fibre was then analysed by GC-MS. The filter paper was then removed, placed in a 28 ml glass vial and 3 ml of ethanol added. The vial was rollered for two hours after which the free ethanol was removed and analysed by GC-MS. The β-cyclocitral in ethanol solution was also analysed to indicate the appropriate retention time. […]

With `CC(=O)/C=C/C1=C(C)CCCC1(C)C` [β-ionone] the “ratio of β-cyclocitral to β-ionone” value ([1]; 250 ppb ozone) was 0.72, the “ratio of β-cyclocitral to β-ionone” value ([1]; 350 ppb ozone) was 2.67 and the “ratio of β-cyclocitral / β-ionone” value ([2]; 1 hour) was 0.43. For the same compound, the “ratio of β-cyclocitral / β-ionone” value ([2]; 2 hour) was 0.95, the “ratio of β-cyclocitral / β-ionone” value ([2]; 3 hour) was 1.87 and the “ratio of β-cyclocitral / β-ionone” value ([2]; 4 hour) was 7.00. For the same compound, the “ratio of β-cyclocitral / β-ionone” value ([2]; 5 hour) was 11.00, the “β-cyclocitral detected in the headspace” value ([3]; SPME GC-MS of headspace) was “No β-cyclocitral was detected” and the “β-cyclocitral detected on the filter paper” value ([3]; ethanol extract of filter paper, GC-MS) was “No β-cyclocitral was detected”.
